Here are results for 29 molecules from US8324390B2, “Tetrazole-substituted anthranilamides as pesticides” (Bayer CropScience AG, priority 2008, dated 2012).

Where two headings read alike, the source gives them in different places. Where only a bound is given, the exact number is not on record here.

The subject of data set [1] is caterpillars of the armyworm (Spodoptera frugiperda). Briefly: Spodoptera frugiperda test (SPODFR spray treatment). It is filed as in vivo. To be noted: Spodoptera frugiperda, foliar, read-out: effect in % (caterpillars killed). The source says:
(§1) Solvent: 78.0 parts by weight of acetone

Data set [2] is described as follows: log P determination by HPLC (EEC Directive 79/831 Annex V.A8). It is filed as physicochemical. As to the method:
The measurements were carried out using an Agilent 1100 LC system with a 50*4.6 Zorbax Eclipse C18 1.8 μm column (oven temperature 55° C., flow rate 2.0 ml/min).
The following mobile phases were used:
Mobile phase A: acetonitrile+1000 μl of formic acid/l
Mobile phase B: Millipore water+900 μl of formic acid/l

In data set [3] the test system is larvae of the mustard beetle (Phaedon cochleariae). Kind of data set: Phaedon test (PHAECO spray treatment). Particulars: Phaedon cochleariae, in Brassica rapa, foliar, read-out: effect in % (beetle larvae killed).
For data set [4], the system named is green peach aphid (Myzus persicae). Briefly: Myzus test (MYZUPE spray treatment). The class given is in vivo. To be noted: Myzus persicae, foliar, read-out: effect in % (aphids killed).
Description: Solvent: 78 parts by weight of acetone
as §1

Where [5] appears, read: application rate 100 g/ha, maize leaf discs.
Setting [6] is: reversed-phase HPLC, Zorbax Eclipse C18 column, determined by HPLC according to EEC Directive 79/831 Annex V.A8, read-out: log P.
[7] abbreviates: application rate 100 g/ha, Chinese cabbage leaf discs.

Regarding `Cc1cc(Cl)cc(C(=O)NC(C)C)c1NC(=O)c1cc(Cn2nnc(C(F)(F)F)n2)nn1-c1ccccc1Cl` [Example 427], the pest or weed control at 100 g/ha in data set [1] (setting [5]), in data set [3] and in data set [4] (setting [7]) was at least 80% in each case. Further, in data set [2] (setting [6]), the chromatographic logP was determined as 3.93.

As for `Cc1cc(C#N)cc(C(=O)NC(C)(C)C)c1NC(=O)c1cc(Cn2nnc(C(F)(F)F)n2)nn1-c1ccccc1` [Example 428], the pest or weed control at 100 g/ha in data set [1] (setting [5]), in data set [3] and in data set [4] (setting [7]) was at least 80% throughout. In addition, the chromatographic logP in data set [2] (setting [6]) was 3.72.

In the case of `CNC(=O)c1cc(C#N)cc(C)c1NC(=O)c1cc(Cn2nnc(C(F)(F)C(F)(F)F)n2)nn1-c1ccccc1Cl` [Example 430], the pest or weed control at 100 g/ha in data set [1] (setting [5]), in data set [3] and in data set [4] (setting [7]) was at least 80% throughout. Moreover, in data set [2] (setting [6]), the chromatographic logP was found to be 3.43.

Consider `C#CC(C)NC(=O)c1cc(C#N)cc(C)c1NC(=O)c1cc(Cn2nnc(C(F)(F)F)n2)nn1-c1ncccc1Cl` (centres unmarked) [Example 432], for which the pest or weed control at 100 g/ha in data set [1] (in Zea mays), in data set [3] and in data set [4] (in Brassica rapa) was at least 80% in each case. Also, the chromatographic logP in data set [2] (log P) came out at 2.97.

As for `Cc1cc(C#N)cc(C(=O)NC(C)C(F)(F)F)c1NC(=O)c1cc(Cn2nnc(C(F)(F)F)n2)nn1-c1ncccc1Cl` (centres unmarked) [Example 433], the pest or weed control at 100 g/ha in data set [1] (in Zea mays), in data set [3] and in data set [4] (in Brassica rapa) was at least 80% throughout. Besides, in data set [2] (log P), the chromatographic logP was found to be 3.25.

For `Cc1cc(C#N)cc(C(=O)NC(C)(C)C)c1NC(=O)c1cc(Cn2nnc(C(F)(F)C(F)(F)F)n2)nn1-c1ccccc1Cl` [Example 434], the pest or weed control at 100 g/ha in data set [1] (setting [5]), in data set [3] and in data set [4] (setting [7]) was at least 80% each time. In data set [2] (setting [6]), the chromatographic logP came to 4.25.

In the case of `COCCNC(=O)c1cc(C#N)cc(C)c1NC(=O)c1cc(Cn2nnc(C(F)(F)F)n2)nn1-c1ccccc1Cl` [Example 435], the pest or weed control at 100 g/ha in data set [1] (setting [5]), in data set [3] and in data set [4] (setting [7]) was at least 80% throughout. Moreover, the chromatographic logP in data set [2] (setting [6]) is 3.18.

For `Cc1cc(C#N)cc(C(N)=O)c1NC(=O)c1cc(C(C)n2nnc(C(F)(F)F)n2)nn1-c1ncccc1Cl` (centres unmarked) [Example 437], the pest or weed control at 100 g/ha in data set [1] (in Zea mays), in data set [3] and in data set [4] (in Brassica rapa) was at least 80% in each case. Further, the chromatographic logP in data set [2] (log P) is 2.66.

Take `Cc1cc(C#N)cc(C(=O)NC(C)C)c1NC(=O)c1cc(C(C)n2nnc(C(F)(F)F)n2)nn1-c1ncccc1Cl` (centres unmarked) [Example 438]: the pest or weed control at 100 g/ha in data set [1] (in Zea mays), in data set [3] and in data set [4] (in Brassica rapa) was at least 80% in each case. In data set [2] (log P), this molecule gave a chromatographic logP of 3.35.

In the case of `Cc1cc(C#N)cc(C(=O)NCC2CC2)c1NC(=O)c1cc(Cn2nnc(C(F)(F)F)n2)nn1-c1ccccc1Cl` [Example 440], the pest or weed control at 100 g/ha in data set [1] (setting [5]), in data set [3] and in data set [4] (setting [7]) was at least 80% each time. Moreover, the chromatographic logP in data set [2] (setting [6]) was found to be 3.61.

As for `CNC(=O)c1cc(S(C)(=O)=O)cc(C)c1NC(=O)c1cc(Cn2nnc(C(F)(F)F)n2)nn1-c1ccccc1Cl` [Example 441], the pest or weed control at 100 g/ha in data set [1] (setting [5]), in data set [3] and in data set [4] (setting [7]) was at least 80% throughout. In addition, in data set [2] (setting [6]), the chromatographic logP was 2.73.

Take `Cc1cc(C#N)cc(C(=O)NC2CC2)c1NC(=O)c1cc(Cn2nnc(C(F)(F)F)n2)nn1-c1ccccc1Cl` [Example 442]: the pest or weed control at 100 g/ha in data set [1] (setting [5]), in data set [3] and in data set [4] (setting [7]) was at least 80% in each case. The chromatographic logP in data set [2] (setting [6]) amounted to 3.29.

`Cc1cc(Cl)cc(C(=O)NC(C)(C)C)c1NC(=O)c1cc(Cn2nnnc2C(F)(F)C(F)(F)F)nn1-c1ncccc1Cl` [Example 443]: the pest or weed control at 100 g/ha in data set [1] (in Zea mays), in data set [3] and in data set [4] (in Brassica rapa) was at least 80% each time. Further, in data set [2] (log P), the chromatographic logP came to 3.92.

On to `CNC(=O)c1cc(C#N)cc(C)c1NC(=O)c1cc(Cn2nnnc2C(F)(F)C(F)(F)F)nn1-c1ncccc1Cl` [Example 444], for which the pest or weed control at 100 g/ha in data set [1] (in Zea mays), in data set [3] and in data set [4] (in Brassica rapa) was at least 80% throughout. The chromatographic logP in data set [2] (log P) amounted to 2.73.

Consider `Cc1cc(C#N)cc(C(=O)NC2CC2)c1NC(=O)c1cc(Cn2nnnc2C(F)(F)C(F)(F)F)nn1-c1ncccc1Cl` [Example 445], for which the pest or weed control at 100 g/ha in data set [1] (in Zea mays), in data set [3] and in data set [4] (in Brassica rapa) was at least 80% throughout. The molecule also returned a chromatographic logP in data set [2] (log P) of 2.95.

In the case of `Cc1cc(C#N)cc(C(=O)NC(C)(C)C)c1NC(=O)c1cc(Cn2nnnc2C(F)(F)C(F)(F)F)nn1-c1ncccc1Cl` [Example 446], the pest or weed control at 100 g/ha in data set [1] (in Zea mays), in data set [3] and in data set [4] (in Brassica rapa) was at least 80% throughout. The molecule further showed a chromatographic logP in data set [2] (log P) of 3.47.

On to `CNC(=O)c1cc(Cl)cc(Cl)c1NC(=O)c1cc(Cn2nnnc2C(F)(F)C(F)(F)F)nn1-c1ncccc1Cl` [Example 447], for which the pest or weed control at 100 g/ha in data set [1] (in Zea mays), in data set [3] and in data set [4] (in Brassica rapa) was at least 80% in each case. The molecule also returned a chromatographic logP in data set [2] (log P) of 3.03.

As for `CC(NC(=O)c1cc(Cl)cc(Cl)c1NC(=O)c1cc(Cn2nnnc2C(F)(F)C(F)(F)F)nn1-c1ncccc1Cl)C1CC1` (centres unmarked) [Example 448], the pest or weed control at 100 g/ha in data set [1] (in Zea mays), in data set [3] and in data set [4] (in Brassica rapa) was at least 80% in each case. This molecule also returned a chromatographic logP in data set [2] (log P) of 3.81.

Consider `Cc1cc(I)cc(C(=O)NC(C)C)c1NC(=O)c1cc(Cn2nnnc2C(F)(F)F)nn1-c1ncccc1C(F)(F)F` [Example 450], for which the pest or weed control at 100 g/ha in data set [1] (setting [5]), in data set [3] and in data set [4] (setting [7]) was at least 80% throughout. In addition, the chromatographic logP in data set [2] (setting [6]) was 3.54.

In the case of `CNC(=O)c1cc(I)cc(C)c1NC(=O)c1cc(Cn2nnnc2C(F)(F)F)nn1-c1ncccc1C(F)(F)F` [Example 452], the pest or weed control at 100 g/ha in data set [1] (setting [5]), in data set [3] and in data set [4] (setting [7]) was at least 80% each time. Further, the chromatographic logP in data set [2] (setting [6]) turned out to be 3.07.

As to `Cc1cc(I)cc(C(N)=O)c1NC(=O)c1cc(Cn2nnnc2C(F)(F)F)nn1-c1ncccc1C(F)(F)F` [Example 455], the pest or weed control at 100 g/ha in data set [1] (setting [5]), in data set [3] and in data set [4] (setting [7]) was at least 80% in each case. In addition, in data set [2] (setting [6]), the chromatographic logP amounted to 2.83.

As for `Cc1cc(Br)cc(C(=O)NC(C)C)c1NC(=O)c1cc(Cn2nnnc2C(F)(F)F)nn1-c1ncccc1C(F)(F)F` [Example 459], the pest or weed control at 100 g/ha in data set [1] (setting [5]), in data set [3] and in data set [4] (setting [7]) was at least 80% in each case. Also, the chromatographic logP in data set [2] (setting [6]) was 3.29.

With `Cc1cc(Cl)cc(C(=O)NC(C)C2CC2)c1NC(=O)c1cc(Cn2nnnc2C(F)F)nn1-c1ncccc1Cl` (centres unmarked) [Example 460], the pest or weed control at 100 g/ha in data set [1] (in Zea mays) and in data set [3] was at least 80% each time. This molecule also returned a chromatographic logP in data set [2] (log P) of 3.07. The pest or weed control at 20 g/ha in data set [4] (in Brassica rapa) is at least 80%.

Turning to `Cc1cc(Cl)cc(C(=O)NC2CC2)c1NC(=O)c1cc(Cn2nnnc2C(F)F)nn1-c1ncccc1Cl` [Example 461], the pest or weed control at 100 g/ha in data set [1] (in Zea mays) and in data set [3] was at least 80% each time. The molecule also had a chromatographic logP in data set [2] (log P) of 2.5. Besides, the pest or weed control at 20 g/ha in data set [4] (in Brassica rapa) was at least 80%.

Consider `Cc1cc(Cl)cc(C(=O)NC(C)C)c1NC(=O)c1cc(Cn2nnnc2C(F)F)nn1-c1ncccc1Cl` [Example 462], for which the pest or weed control at 100 g/ha in data set [1] (in Zea mays), in data set [3] and in data set [4] (in Brassica rapa) was at least 80% throughout. The molecule also gave a chromatographic logP in data set [2] (log P) of 2.75.

On to `Cc1cc(C#N)cc(C(=O)NC(C)C)c1NC(=O)c1cc(Cn2nnnc2C(F)F)nn1-c1ncccc1Cl` [Example 463], for which the pest or weed control at 100 g/ha in data set [1] (in Zea mays), in data set [3] and in data set [4] (in Brassica rapa) was at least 80% throughout. The molecule further returned a chromatographic logP in data set [2] (log P) of 2.36.

On to `Cc1cc(C#N)cc(C(=O)NC(C)(C)C)c1NC(=O)c1cc(Cn2nnnc2C(F)F)nn1-c1ncccc1Cl` [Example 464], for which the pest or weed control at 100 g/ha in data set [1] (in Zea mays), in data set [3] and in data set [4] (in Brassica rapa) was at least 80% each time. The chromatographic logP in data set [2] (log P) is 2.59.

As to `CC(NC(=O)c1cc(Cl)cc(Cl)c1NC(=O)c1cc(Cn2nnnc2C(F)F)nn1-c1ncccc1Cl)C1CC1` (centres unmarked) [Example 465], the pest or weed control at 100 g/ha in data set [1] (in Zea mays), in data set [3] and in data set [4] (in Brassica rapa) was at least 80% in each case. The chromatographic logP in data set [2] (log P) is 3.02.

Turning to `CC(C)NC(=O)c1cc(Cl)cc(Cl)c1NC(=O)c1cc(Cn2nnnc2C(F)F)nn1-c1ncccc1Cl` [Example 466], the pest or weed control at 100 g/ha in data set [1] (in Zea mays), in data set [3] and in data set [4] (in Brassica rapa) was at least 80% in each case. In data set [2] (log P), this molecule displayed a chromatographic logP of 2.71.
